Source: ChEMBL document CHEMBL1159301, “Isolation and absolute configuration of ent-Halimane diterpenoids from Hymenaea courbaril from the Suriname rain forest” (J Nat Prod, 2002)
Active and inactive are the calls of the source. No cut-off for these calls is given here.

Tests used:
A2780 = test: Cytotoxicity against human A2780 cells after 48 hrs by alamar blue assay; type: functional, cell-based
Saccharomyces cerevisiae = test: DNA damaging activity against yeast 1138 mutant assessed as drug level required to produce 12 mm zone of inhibition; type: functional

C=C[C@](C)(O)CC[C@]1(C)C2=CC(=O)C[C@](C)(C(=O)O)[C@H]2CC[C@H]1C
Activity (A2780): inactive
Activity (Saccharomyces cerevisiae): inactive

C=C[C@](C)(O)CC[C@]1(C)C2=CCC[C@](C)(C(=O)O)[C@H]2CC[C@H]1C
IC50 (A2780; A2780, 48 h): > 40 µg/mL
IC12 (Saccharomyces cerevisiae): 925 µg/mL

C=C[C@](C)(O)CC[C@]1(C)C2=CCC[C@](C)(C(=O)N[C@@H](C(=O)OC)c3ccccc3)[C@H]2CC[C@H]1C
Activity (A2780): inactive
Activity (Saccharomyces cerevisiae): inactive

C=C[C@](C)(O)CC[C@]1(C)C2=CCC[C@](C)(C(=O)N[C@H](C(=O)OC)c3ccccc3)[C@H]2CC[C@H]1C
Activity (A2780): inactive
Activity (Saccharomyces cerevisiae): inactive
